# BindingDB's records for patent US20240352000 (Korea Research Institute of Chemical Technology, 2024)
# Legend:
# [1] = biological target: T1, Epidermal growth factor receptor [DEL746-750,T790M,C797S] (Homo sapiens, UniProt P00533, C797S/DEL746-750/T790M); test: Measurement of Inhibitory Ability of the Compounds Represented by Formula 1 According to the Present Invention Against Wild Type EGFR and EGFR Mutants
# T1 construct: gene EGFR
# Experimental: (§1) An experiment to measure the activity of the compounds of the present invention against EGFR mutant enzymes was performed as follows using the HTRF system sold by Cisbio. For the EGFR del19/T790M mutant enzyme, a recombinant protein provided by Carna Biosciences was purchased and used, and for the EGFR del19/T790M/C797S mutant enzyme, a protein provided by SignalChem was purchased and used as an enzyme source.The composition of the assay buffer used for measuring the activity was 50 mM Tris-HCl pH 7.5, 100 mM NaCl, 7.5 mM MgCl2, 3 mM KCl, 0.01% Tween 20, 0.1% BSA, and 1 mM DTT. Here, an enzyme reaction was performed using […] and a peptide substrate labeled with biotin at a concentration of 0.5 mM. Analysis of the inhibitory effect of the compounds against the EGFR activity was conducted according to the following analysis reaction recipe.Component 1: 4 μL of an EGFR mutant enzymeComponent 2: 2 μL of a compound solutionComponent 3: 4 μL of ATP and a peptide labeled with biotinThe enzyme reaction was started by first mixing Component 1 and Component 2 and then adding Component 3. After reaction at 37° C. for 2 hours, […] consisting of streptavidin-XL665 and europium-labeled anti-phosphotyrosine antibody provided by Cisbio was added to the enzyme reaction solution and reacted at room temperature for 1 hour. Finally, the ratio of fluorescence values at 615 nm and 665 nm was obtained using the Envision equipment from Perkin-Elmer to quantitatively measure the enzyme activity and confirmed the inhibitory ability of the compounds.
# [2] = biological target: T2, Epidermal growth factor receptor [DEL746-750,T790M] (Homo sapiens, UniProt P00533, DEL746-750/T790M); test: as above
# T2 construct: gene EGFR
# Experimental: as §1
# T2 sequence (P00533 with tags, fused parts or gaps DEL746-750/T790M limits assumed): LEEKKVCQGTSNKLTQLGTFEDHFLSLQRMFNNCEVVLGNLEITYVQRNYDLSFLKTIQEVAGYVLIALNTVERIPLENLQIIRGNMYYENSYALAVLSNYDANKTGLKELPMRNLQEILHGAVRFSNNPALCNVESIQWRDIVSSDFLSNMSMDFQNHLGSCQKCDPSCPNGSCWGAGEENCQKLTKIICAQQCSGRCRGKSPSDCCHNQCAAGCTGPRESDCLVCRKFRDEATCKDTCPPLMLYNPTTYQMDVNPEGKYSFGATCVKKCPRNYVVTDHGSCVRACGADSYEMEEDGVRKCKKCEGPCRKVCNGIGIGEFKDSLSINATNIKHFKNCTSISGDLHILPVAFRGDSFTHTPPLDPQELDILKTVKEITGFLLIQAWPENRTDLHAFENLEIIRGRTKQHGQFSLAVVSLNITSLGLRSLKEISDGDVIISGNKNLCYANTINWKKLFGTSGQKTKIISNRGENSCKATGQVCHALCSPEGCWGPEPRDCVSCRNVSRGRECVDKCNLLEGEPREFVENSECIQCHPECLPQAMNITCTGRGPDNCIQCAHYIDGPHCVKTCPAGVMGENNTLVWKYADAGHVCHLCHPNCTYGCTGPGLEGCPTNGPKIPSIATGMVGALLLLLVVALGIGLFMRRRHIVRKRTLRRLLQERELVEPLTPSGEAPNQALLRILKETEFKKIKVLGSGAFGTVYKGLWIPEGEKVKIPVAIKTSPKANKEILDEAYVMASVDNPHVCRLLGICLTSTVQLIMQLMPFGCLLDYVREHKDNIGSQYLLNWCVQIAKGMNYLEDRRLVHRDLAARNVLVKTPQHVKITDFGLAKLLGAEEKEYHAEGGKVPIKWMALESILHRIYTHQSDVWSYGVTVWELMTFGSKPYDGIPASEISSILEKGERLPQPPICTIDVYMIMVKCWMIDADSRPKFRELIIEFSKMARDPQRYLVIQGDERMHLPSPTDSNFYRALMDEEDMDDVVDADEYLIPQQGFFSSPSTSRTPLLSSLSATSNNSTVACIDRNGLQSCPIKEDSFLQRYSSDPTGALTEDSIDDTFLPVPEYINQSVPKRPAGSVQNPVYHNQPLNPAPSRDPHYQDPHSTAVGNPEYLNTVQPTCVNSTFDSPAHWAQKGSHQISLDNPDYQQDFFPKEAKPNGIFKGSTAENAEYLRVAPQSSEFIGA
# T1 sequence (P00533 with tags, fused parts or gaps C797S/DEL746-750/T790M limits assumed): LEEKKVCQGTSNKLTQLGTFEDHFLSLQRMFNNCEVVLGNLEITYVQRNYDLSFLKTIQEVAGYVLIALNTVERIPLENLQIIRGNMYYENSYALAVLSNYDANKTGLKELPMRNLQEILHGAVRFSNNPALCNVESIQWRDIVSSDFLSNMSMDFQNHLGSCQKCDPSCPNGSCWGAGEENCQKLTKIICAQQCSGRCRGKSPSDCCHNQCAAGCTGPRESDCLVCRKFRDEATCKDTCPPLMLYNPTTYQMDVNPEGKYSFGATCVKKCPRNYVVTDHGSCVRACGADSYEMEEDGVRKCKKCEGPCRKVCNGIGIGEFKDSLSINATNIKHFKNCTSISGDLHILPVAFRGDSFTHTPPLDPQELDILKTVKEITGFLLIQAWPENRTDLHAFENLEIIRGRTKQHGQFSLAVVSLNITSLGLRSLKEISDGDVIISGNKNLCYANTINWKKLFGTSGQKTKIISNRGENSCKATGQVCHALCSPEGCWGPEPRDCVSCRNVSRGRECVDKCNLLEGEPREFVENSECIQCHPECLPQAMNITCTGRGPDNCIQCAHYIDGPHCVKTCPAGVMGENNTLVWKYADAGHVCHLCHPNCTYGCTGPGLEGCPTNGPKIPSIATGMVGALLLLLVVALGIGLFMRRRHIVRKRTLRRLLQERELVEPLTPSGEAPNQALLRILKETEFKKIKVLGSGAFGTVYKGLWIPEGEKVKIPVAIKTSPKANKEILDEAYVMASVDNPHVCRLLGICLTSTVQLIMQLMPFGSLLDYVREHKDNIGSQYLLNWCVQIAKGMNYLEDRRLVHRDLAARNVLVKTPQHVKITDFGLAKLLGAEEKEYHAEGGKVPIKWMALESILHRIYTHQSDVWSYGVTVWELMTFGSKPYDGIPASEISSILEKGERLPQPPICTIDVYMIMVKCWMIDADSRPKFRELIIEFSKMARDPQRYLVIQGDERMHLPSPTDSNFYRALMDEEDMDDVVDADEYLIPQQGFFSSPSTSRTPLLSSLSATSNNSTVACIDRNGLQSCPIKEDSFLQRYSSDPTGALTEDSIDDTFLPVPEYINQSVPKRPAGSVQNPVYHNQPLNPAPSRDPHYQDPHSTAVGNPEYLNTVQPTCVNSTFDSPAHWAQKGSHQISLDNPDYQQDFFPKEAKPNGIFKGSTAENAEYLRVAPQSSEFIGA
Structure (SMILES),IC50 [1],IC50 [2]
"COc1cc(N2CCC(N3CCN(C)CC3)CC2)ccc1Nc1ncc(Cl)c(Nc2cccc3c2N(C(C)=O)CCC3)n1 [US20240352000, Example 15]",56 nM,73 nM
"COc1cc(N2CCC(N3CCNCC3)CC2)ccc1Nc1ncc(Cl)c(Nc2cccc3c2N(S(C)(=O)=O)CC3)n1 [US20240352000, Example 17]",< 1 nM,
"CCS(=O)(=O)N1CCc2cccc(Nc3nc(Nc4ccc(N5CCC(N6CCN(C)CC6)CC5)cc4OC)ncc3Cl)c21 [US20240352000, Example 13]",,< 1 nM
"CCC(=O)N1CCc2cccc(Nc3nc(Nc4ccc(N5CCC(N6CCN(C)CC6)CC5)cc4OC)ncc3Cl)c21 [US20240352000, Example 14]",50 nM,91 nM
"COc1cc(N2CCC(N3CCN(C)CC3)CC2)ccc1Nc1ncc(Cl)c(Nc2cccc3c2N(C(C)=O)CC3)n1 [US20240352000, Example 12]",< 1 nM,
"COc1cc(N(C)CCN(C)C)ccc1Nc1ncc(Cl)c(Nc2cccc3c2N(S(C)(=O)=O)CC3)n1 [US20240352000, Example 3]",< 1 nM,
